Laboratory results reported in the NIST ThermoML archive (doi:10.1021/je300175w).
“And” between values parts separate entries of the source, which are not always exact repeats. Identical values can stand only once.

Experiment: mn = molality of the nth substance listed, in mol/kg
Details: 101 kPa, Liquid; for speed of sound: Sing-around technique in a fixed-path interferometer; for mass density: Vibrating tube method

CC(CO)(CO)CO [1,1,1-trimethylolethane] + O
speed of sound
Details | 278.15 K | 283.15 K | 288.15 K | 293.15 K | 298.15 K | 308.15 K | 318.15 K
m1 = 0.09995 | 1433.9 m/s and 1433.8 m/s | 1454.4 m/s | 1472.6 m/s | 1488.5 m/s | 1502.4 m/s and 1502.5 m/s | 1525 m/s | 1540.9 m/s
m1 = 0.1985 | 1441.3 m/s | 1461.3 m/s | 1479 m/s | 1494.5 m/s | 1508 m/s and 1508.1 m/s | 1529.9 m/s | 1545.2 m/s and 1545.5 m/s
m1 = 0.291 | 1448.2 m/s | 1467.7 m/s | 1484.9 m/s | 1500.1 m/s | 1513.2 m/s | 1534.4 m/s and 1534.7 m/s | 1549.1 m/s and 1549 m/s
m1 = 0.3923 | 1455.6 m/s | 1474.6 m/s | 1491.3 m/s and 1491.4 m/s | 1506.1 m/s | 1518.8 m/s | 1539.3 m/s and 1539.6 m/s | 1553.3 m/s and 1553.2 m/s
m1 = 0.4962 | 1463.1 m/s | 1481.5 m/s and 1481.6 m/s | 1497.8 m/s | 1512.1 m/s | 1524.4 m/s and 1524.5 m/s | 1544.2 m/s and 1544.5 m/s | 1557.6 m/s and 1557.4 m/s
m1 = 0.6042 | 1470.7 m/s | 1488.6 m/s | 1504.4 m/s | 1518.2 m/s | 1530.1 m/s and 1530.2 m/s | 1549.2 m/s and 1548.9 m/s | 1561.9 m/s and 1561.7 m/s

OCC(CO)(CO)CO [2,2-bis(hydroxymethyl)-1,3-propanediol] + O
Details | mass density | speed of sound
273.15 K, m1 = 0.1002 | 1003.54 kg/m3 and 1003.55 kg/m3 | –
273.15 K, m1 = 0.1501 | 1005.3 kg/m3 and 1005.29 kg/m3 | –
273.15 K, m1 = 0.2001 | 1007.05 kg/m3 and 1007.04 kg/m3 | –
273.15 K, m1 = 0.2503 | 1008.77 kg/m3 | –
273.15 K, m1 = 0.3005 | 1010.48 kg/m3 | –
273.15 K, m1 = 0.35 | 1012.15 kg/m3 and 1012.16 kg/m3 | –
278.15 K, m1 = 0.1002 | – | 1432.6 m/s and 1432.7 m/s
278.15 K, m1 = 0.1501 | – | 1435.8 m/s
278.15 K, m1 = 0.2001 | – | 1439 m/s
278.15 K, m1 = 0.2503 | – | 1442.1 m/s and 1442.2 m/s
278.15 K, m1 = 0.3005 | – | 1445.3 m/s
278.15 K, m1 = 0.35 | – | 1448.3 m/s and 1448.4 m/s
283.15 K, m1 = 0.1002 | 1003.23 kg/m3 | 1453.3 m/s
283.15 K, m1 = 0.1501 | 1004.96 kg/m3 | 1456.2 m/s and 1456.3 m/s
283.15 K, m1 = 0.2001 | 1006.68 kg/m3 and 1006.69 kg/m3 | 1459.2 m/s
283.15 K, m1 = 0.2503 | 1008.38 kg/m3 and 1008.39 kg/m3 | 1462.2 m/s
283.15 K, m1 = 0.3005 | 1010.07 kg/m3 and 1010.08 kg/m3 | 1465.1 m/s
283.15 K, m1 = 0.35 | 1011.72 kg/m3 and 1011.73 kg/m3 | 1468 m/s
288.15 K, m1 = 0.1002 | 1002.59 kg/m3 | 1471.6 m/s
288.15 K, m1 = 0.1501 | 1004.3 kg/m3 | 1474.4 m/s
288.15 K, m1 = 0.2001 | 1006 kg/m3 and 1006.01 kg/m3 | 1477.2 m/s
288.15 K, m1 = 0.2503 | 1007.68 kg/m3 and 1007.69 kg/m3 | 1479.9 m/s
288.15 K, m1 = 0.3005 | 1009.35 kg/m3 and 1009.36 kg/m3 | 1482.6 m/s and 1482.7 m/s
288.15 K, m1 = 0.35 | 1010.98 kg/m3 and 1010.99 kg/m3 | 1485.3 m/s and 1485.4 m/s
293.15 K, m1 = 0.1002 | 1001.66 kg/m3 | 1487.7 m/s
293.15 K, m1 = 0.1501 | 1003.35 kg/m3 | 1490.3 m/s
293.15 K, m1 = 0.2001 | 1005.04 kg/m3 and 1005.03 kg/m3 | 1492.9 m/s and 1492.8 m/s
293.15 K, m1 = 0.2503 | 1006.7 kg/m3 and 1006.71 kg/m3 | 1495.5 m/s
293.15 K, m1 = 0.3005 | 1008.35 kg/m3 | 1498 m/s and 1498.1 m/s
293.15 K, m1 = 0.35 | 1009.97 kg/m3 | 1500.6 m/s
298.15 K, m1 = 0.1002 | 1000.47 kg/m3 | 1501.7 m/s
298.15 K, m1 = 0.1501 | 1002.14 kg/m3 and 1002.15 kg/m3 | 1504.1 m/s and 1504.2 m/s
298.15 K, m1 = 0.2001 | 1003.82 kg/m3 | 1506.6 m/s
298.15 K, m1 = 0.2503 | 1005.47 kg/m3 | 1509 m/s and 1509.1 m/s
298.15 K, m1 = 0.3005 | 1007.1 kg/m3 and 1007.11 kg/m3 | 1511.5 m/s
298.15 K, m1 = 0.35 | 1008.7 kg/m3 and 1008.71 kg/m3 | 1513.9 m/s
303.15 K, m1 = 0.1002 | 999.044 kg/m3 and 999.045 kg/m3 | 1513.8 m/s
303.15 K, m1 = 0.1501 | 1000.71 kg/m3 | 1516.2 m/s
303.15 K, m1 = 0.2001 | 1002.36 kg/m3 and 1002.37 kg/m3 | 1518.5 m/s
303.15 K, m1 = 0.2503 | 1004 kg/m3 | 1520.8 m/s
303.15 K, m1 = 0.3005 | 1005.62 kg/m3 | 1523.1 m/s and 1523 m/s
303.15 K, m1 = 0.35 | 1007.22 kg/m3 and 1007.21 kg/m3 | 1525.3 m/s
308.15 K, m1 = 0.1002 | 997.404 kg/m3 and 997.402 kg/m3 | 1524.3 m/s
308.15 K, m1 = 0.1501 | 999.052 kg/m3 and 999.053 kg/m3 | 1526.5 m/s and 1526.4 m/s
308.15 K, m1 = 0.2001 | 1000.7 kg/m3 | 1528.6 m/s
308.15 K, m1 = 0.2503 | 1002.33 kg/m3 | 1530.8 m/s
308.15 K, m1 = 0.3005 | 1003.93 kg/m3 and 1003.94 kg/m3 | 1533 m/s and 1532.9 m/s
308.15 K, m1 = 0.35 | 1005.51 kg/m3 and 1005.52 kg/m3 | 1535.1 m/s and 1535 m/s
318.15 K, m1 = 0.1002 | 993.545 kg/m3 and 993.543 kg/m3 | 1540.4 m/s
318.15 K, m1 = 0.1501 | 995.176 kg/m3 and 995.177 kg/m3 | 1542.3 m/s and 1542.4 m/s
318.15 K, m1 = 0.2001 | 996.806 kg/m3 and 996.808 kg/m3 | 1544.2 m/s and 1544.3 m/s
318.15 K, m1 = 0.2503 | 998.41 kg/m3 and 998.412 kg/m3 | 1546.2 m/s and 1546.3 m/s
318.15 K, m1 = 0.3005 | 1000 kg/m3 | 1548.1 m/s and 1548.2 m/s
318.15 K, m1 = 0.35 | 1001.56 kg/m3 | 1549.9 m/s and 1550 m/s and 1550.1 m/s
